In US10899753B2, “Inhibiting agents for Bruton's tyrosine kinase” (BIOGEN MA INC., priority 2018, dated 2021):

Columns and labels:
BTK [1] = molecular target: T1, BTK (Homo sapiens (Human), UniProt Q06187); test: In Vitro BTK Kinase Assay: BTK-POLYGAT-LS ASSAY; format: biochemical; conditions: fluorescein-labeled polyGAT peptide 100 nM, BTK enzyme 0.25 nM, 30 minutes, TRF
Outline: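 ATP […] and polyGAT peptide (100 nM), final concentrations, in Tris-HCl pH 7.5 kinase buffer with MgCl2, DTT, Triton X-100 and casein. Reaction run 30 min, stopped with EDTA, then 45 min at room temperature.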

BTK [2] = molecular target: T1, BTK; test: In Vitro PD Assay in Human Whole Blood (pBTK assay); format: cell-based; conditions: human heparinized whole blood, 37° C. for 30 min, total BTK capture and phosphotyrosine detection (ECL)
Outline: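 Heparinized human venous whole blood spiked with serially diluted compound (0.1% DMSO final) and incubated 30 min at 37° C. Lysed with protease/phosphatase inhibitors (high control +PPi, low control −PPi lacking phosphatase inhibitors); total BTK captured and phosphotyrosine detected.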

T1 sequence (Q06187 whole entry): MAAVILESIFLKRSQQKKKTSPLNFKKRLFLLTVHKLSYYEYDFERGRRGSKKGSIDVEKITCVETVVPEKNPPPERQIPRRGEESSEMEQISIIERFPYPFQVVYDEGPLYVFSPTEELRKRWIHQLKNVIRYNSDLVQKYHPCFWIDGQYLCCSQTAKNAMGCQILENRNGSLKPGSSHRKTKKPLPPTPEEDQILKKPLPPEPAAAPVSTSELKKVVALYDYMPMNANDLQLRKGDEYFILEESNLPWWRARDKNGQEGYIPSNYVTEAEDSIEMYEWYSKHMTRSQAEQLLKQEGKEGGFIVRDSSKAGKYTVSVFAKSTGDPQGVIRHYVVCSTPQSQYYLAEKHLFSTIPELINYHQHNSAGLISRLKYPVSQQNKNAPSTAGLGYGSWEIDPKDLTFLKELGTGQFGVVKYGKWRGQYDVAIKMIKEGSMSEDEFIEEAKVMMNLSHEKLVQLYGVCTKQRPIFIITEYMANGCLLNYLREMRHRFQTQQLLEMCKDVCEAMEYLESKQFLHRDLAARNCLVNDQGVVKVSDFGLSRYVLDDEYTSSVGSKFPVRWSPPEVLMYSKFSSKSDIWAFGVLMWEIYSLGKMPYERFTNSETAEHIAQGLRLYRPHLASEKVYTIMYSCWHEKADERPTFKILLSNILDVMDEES

Row | SMILES | IC50 (BTK [1]) | IC50 (BTK [2])
1 | Cc1c([C@@H](C)NC(=O)c2cc(C(C)(C)C)no2)ccc(-c2ncnc(Nc3cnn(C)c3)n2)c1F [Compound 75, (R)-3-(tert-butyl)-N-(1-(3-fluoro-2-methyl-4-(4-((1-methyl-1H-pyrazol-4-yl)amino)-1,3,5-triazin-2-yl)phenyl)ethyl)isoxazole-5-carboxamide] | < 1 nM | 100 to 500 nM
2 | Cn1ccc(Nc2ncnc(-c3ccc(CNC(=O)c4nc(C(C)(C)C)no4)c(C(F)(F)F)c3F)n2)n1 [Compound 20, 3-(tert-butyl)-N-(3-fluoro-4-(4-((1-methyl-1H-pyrazol-3-yl)amino)-1,3,5-triazin-2-yl)-2-(trifluoromethyl)benzyl)-1,2,4-oxadiazole-5-carboxamide] | < 1 nM | 500 to 10000 nM
3 | Cn1cc(Nc2ncnc(-c3ccc(CNC(=O)c4nc(C(C)(C)C)no4)c(Cl)c3)n2)cn1 [Compound 16, 3-(tert-butyl)-N-(2-chloro-4-(4-((1-methyl-1H-pyrazol-4-yl)amino)-1,3,5-triazin-2-yl)benzyl)-1,2,4-oxadiazole-5-carboxamide] | < 1 nM | 100 to 500 nM
4 | Cn1cc(Nc2ncnc(-c3ccc(CNC(=O)c4noc(C(C)(C)C)n4)c(C(F)(F)F)c3)n2)cn1 [Compound 17, 5-(tert-butyl)-N-(4-(4-((1-methyl-1H-pyrazol-4-yl)amino)-1,3,5-triazin-2-yl)-2-(trifluoromethyl)benzyl)-1,2,4-oxadiazole-3-carboxamide] | < 1 nM | 100 to 500 nM
5 | Cn1ccc(Nc2ncnc(-c3ccc(CNC(=O)c4noc(C(C)(C)C)n4)c(Cl)c3F)n2)n1 [Compound 21, 5-(tert-butyl)-N-(2-chloro-3-fluoro-4-(4-((1-methyl-1H-pyrazol-3-yl)amino)-1,3,5-triazin-2-yl)benzyl)-1,2,4-oxadiazole-3-carboxamide] | < 1 nM | 100 to 500 nM
6 | Cn1cc(Nc2ncnc(-c3ccc(CNC(=O)c4coc(C(C)(C)C)n4)c(Cl)c3F)n2)cn1 [Compound 103, 2-(tert-butyl)-N-(2-chloro-3-fluoro-4-(4-((1-methyl-1H-pyrazol-4-yl)amino)-1,3,5-triazin-2-yl)benzyl)oxazole-4-carboxamide] | < 1 nM | 100 to 500 nM
7 | Cc1c([C@@H](C)NC(=O)c2nc(C(C)(C)C)no2)ccc(-c2ncnc(Nc3cnn(C)c3)n2)c1Cl [Compound 80, (R)-3-(tert-butyl)-N-(1-(3-chloro-2-methyl-4-(4-((1-methyl-1H-pyrazol-4-yl)amino)-1,3,5-triazin-2-yl)phenyl)ethyl)-1,2,4-oxadiazole-5-carboxamide] | < 1 nM | 100 to 500 nM
8 | Cc1c(CNC(=O)c2cn(C(C)(C)C)nn2)ccc(-c2ncnc(Nc3cnn(C)c3)n2)c1F [Compound 105, 1-(tert-butyl)-N-(3-fluoro-2-methyl-4-(4-((1-methyl-1H-pyrazol-4-yl)amino)-1,3,5-triazin-2-yl)benzyl)-1H-1,2,3-triazole-4-carboxamide] | < 1 nM | 100 to 500 nM
9 | Cn1ccc(Nc2ncnc(-c3ccc4c(c3)CN(CC(F)(F)F)CC[C@H]4NC(=O)c3nc(C(C)(C)C)co3)n2)n1 [Compound 96, (R)-4-(tert-butyl)-N-(8-(4-((1-methyl-1H-pyrazol-3-yl)amino)-1,3,5-triazin-2-yl)-2-(2,2,2-trifluoroethyl)-2,3,4,5-tetrahydro-1H-benzo[c]azepin-5-yl)oxazole-2-carboxamide] | 1 to 10 nM | 500 to 10000 nM
10 | Cn1ccc(Nc2ncnc(-c3ccc(CNC(=O)c4nc(C(C)(C)C)no4)c(C(F)F)c3F)n2)n1 [Compound 66, 3-(tert-butyl)-N-(2-(difluoromethyl)-3-fluoro-4-(4-((1-methyl-1H-pyrazol-3-yl)amino)-1,3,5-triazin-2-yl)benzyl)-1,2,4-oxadiazole-5-carboxamide] | 1 to 10 nM | 500 to 10000 nM
11 | Cc1cc(-c2ncnc(Nc3cnn(C)c3)n2)ccc1CNC(=O)c1noc(C2(C)CC2)n1 [Compound 40, N-(2-methyl-4-(4-((1-methyl-1H-pyrazol-4-yl)amino)-1,3,5-triazin-2-yl)benzyl)-5-(1-methylcyclopropyl)-1,2,4-oxadiazole-3-carboxamide] | < 1 nM | 100 to 500 nM
12 | Cc1cc(-c2ncnc(Nc3cnn(C)c3)n2)ccc1CNC(=O)c1coc(C(C)(C)C)n1 [Compound 107, 2-(tert-butyl)-N-(2-methyl-4-(4-((1-methyl-1H-pyrazol-4-yl)amino)-1,3,5-triazin-2-yl)benzyl)oxazole-4-carboxamide] | < 1 nM | 500 to 10000 nM
13 | Cn1ccc(Nc2ncnc(-c3ccc4c(c3F)CCCC[C@H]4NC(=O)c3nc(C(C)(C)C)no3)n2)n1 [Compound 89, (R)-3-(tert-butyl)-N-(1-fluoro-2-(4-((1-methyl-1H-pyrazol-3-yl)amino)-1,3,5-triazin-2-yl)-6,7,8,9-tetrahydro-5H-benzo[7]annulen-5-yl)-1,2,4-oxadiazole-5-carboxamide] | < 1 nM | < 100 nM
14 | Cc1cc(-c2ncnc(Nc3cnn(C)c3)n2)c(F)cc1CNC(=O)c1coc(C(C)(C)C)n1 [Compound 65, 2-(tert-butyl)-N-(5-fluoro-2-methyl-4-(4-((1-methyl-1H-pyrazol-4-yl)amino)-1,3,5-triazin-2-yl)benzyl)oxazole-4-carboxamide] | < 1 nM | 500 to 10000 nM
